# Measurements from patent US20110288086A1, “POLYCYCLIC QUINAZOLINES, PREPARATION THEREOF, AND USE THEREOF” (priority 2010, published 2011).
# Tests used:
# [1] = test system: PANC-1 human pancreatic cancer cells; experiment: Tumor cell inhibition ratio, CCK-8 kit, PANC-1; details: PANC-1, read-out: Antiproliferative effect (inhibition ratio) PANC-1
# From the text: (§1) The inhibitory activities of the compounds on tumor cells in vitro
# [2] = test system: Hut78 T-Lymphocytic Leukemia cells; experiment: Tumor cell inhibition ratio, CCK-8 kit, Hut78; details: Homo sapiens, HuT78, read-out: Antiproliferative effect (inhibition ratio) Hut-78
# From the text: as §1
# [3] = test system: A549 human lung cancer cells; experiment: Tumor cell inhibition ratio, CCK-8 kit, A549; details: A549, read-out: Antiproliferative effect (inhibition ratio) A549
# From the text: as §1
# EGFR tyrosine kinase = EGFR tyrosine kinase (Homo sapiens, UniProt P00533); experiment: EGFR tyrosine kinase inhibition in vitro (Invitrogen EGFR inhibitor screening kit PV3193)
# EGFR tyrosine kinase, sequence (P00533 25-1210): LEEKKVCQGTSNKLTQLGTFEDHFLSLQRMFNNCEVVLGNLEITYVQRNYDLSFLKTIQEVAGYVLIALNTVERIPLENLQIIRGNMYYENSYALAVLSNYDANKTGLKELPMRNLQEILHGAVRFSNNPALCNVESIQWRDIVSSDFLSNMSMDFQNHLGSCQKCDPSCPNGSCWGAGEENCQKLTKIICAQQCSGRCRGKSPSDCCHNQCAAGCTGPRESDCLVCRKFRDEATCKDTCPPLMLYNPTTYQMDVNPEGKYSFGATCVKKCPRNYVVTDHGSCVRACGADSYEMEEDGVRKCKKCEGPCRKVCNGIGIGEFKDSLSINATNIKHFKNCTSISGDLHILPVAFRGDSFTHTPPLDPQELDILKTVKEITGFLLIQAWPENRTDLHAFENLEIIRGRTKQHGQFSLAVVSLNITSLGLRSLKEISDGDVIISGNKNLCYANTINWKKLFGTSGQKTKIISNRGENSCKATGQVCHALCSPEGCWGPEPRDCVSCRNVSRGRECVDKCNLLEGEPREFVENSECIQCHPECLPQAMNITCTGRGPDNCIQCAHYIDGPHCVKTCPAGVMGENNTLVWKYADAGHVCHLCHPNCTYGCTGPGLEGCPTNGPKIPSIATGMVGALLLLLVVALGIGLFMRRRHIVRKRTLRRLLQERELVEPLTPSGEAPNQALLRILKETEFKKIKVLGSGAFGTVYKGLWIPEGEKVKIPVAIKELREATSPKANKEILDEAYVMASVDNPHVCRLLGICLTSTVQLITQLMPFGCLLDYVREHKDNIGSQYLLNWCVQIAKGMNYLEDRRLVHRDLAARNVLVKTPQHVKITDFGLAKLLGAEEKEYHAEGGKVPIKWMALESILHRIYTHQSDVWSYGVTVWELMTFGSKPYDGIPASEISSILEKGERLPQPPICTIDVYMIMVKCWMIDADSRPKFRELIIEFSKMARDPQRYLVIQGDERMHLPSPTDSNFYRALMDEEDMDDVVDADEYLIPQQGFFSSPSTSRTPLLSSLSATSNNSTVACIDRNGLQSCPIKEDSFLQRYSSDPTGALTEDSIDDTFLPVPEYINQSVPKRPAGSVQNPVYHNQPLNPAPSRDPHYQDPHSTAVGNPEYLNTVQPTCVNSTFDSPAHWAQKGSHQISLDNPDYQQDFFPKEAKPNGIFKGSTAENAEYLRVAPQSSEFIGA
# From the text: The inhibitory activities of EGFR tyrosine kinase in vitro
# Erlotinib hydrochloride was used as a positive control drug.
# [4] = test system: Jurkat E6-1 human T-cell lymphoma; experiment: Tumor cell inhibition ratio, CCK-8 kit, Jurkat E6-1; details: Jurkat E6.1, read-out: Antiproliferative effect (inhibition ratio) E6-1
# From the text: as §1
# [5] = test system: MDA-MB-435s human breast carcinoma cells; experiment: Tumor cell inhibition ratio, CCK-8 kit, MDA-MB-435s; details: read-out: Antiproliferative effect (inhibition ratio) 435s
# From the text: as §1
# aurora kinase B = molecular target: T1, aurora kinase B (Homo sapiens, UniProt Q96GD4); experiment: Aurora kinase B inhibition in vitro (Invitrogen aurora kinase screening kit PV3174); type: biochemical
# T1 construct: purchased Invitrogen PV3174
# T1 sequence (Q96GD4 whole entry): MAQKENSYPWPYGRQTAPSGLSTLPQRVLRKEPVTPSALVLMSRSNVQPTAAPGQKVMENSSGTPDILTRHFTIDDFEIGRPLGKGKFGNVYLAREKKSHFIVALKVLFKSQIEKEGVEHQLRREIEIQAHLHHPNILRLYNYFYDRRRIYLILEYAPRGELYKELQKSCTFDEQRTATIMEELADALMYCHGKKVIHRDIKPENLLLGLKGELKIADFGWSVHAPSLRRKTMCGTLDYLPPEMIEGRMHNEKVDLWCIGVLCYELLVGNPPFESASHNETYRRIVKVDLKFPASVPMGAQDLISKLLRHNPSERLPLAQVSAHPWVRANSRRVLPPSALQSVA
# [6] = test system: Colo320 human rectal cancer cells; experiment: Tumor cell inhibition ratio, CCK-8 kit, Colo320; details: COLO 320, read-out: Antiproliferative effect (inhibition ratio) Colo320
# From the text: as §1
# [7] = test system: PC-3 human carcinoma of prostate; experiment: Tumor cell inhibition ratio, CCK-8 kit, PC-3; details: read-out: Antiproliferative effect (inhibition ratio) PC-3
# From the text: as §1
# [8] = test system: Hep3B2.1-7 human hepatoma carcinoma cells; experiment: Tumor cell inhibition ratio, CCK-8 kit, Hep3B; details: read-out: Antiproliferative effect (inhibition ratio) Hep3B
# From the text: as §1
# [9] = test system: K562 human chronicity marrow leukemic cells; experiment: Tumor cell inhibition ratio, CCK-8 kit, K562; details: K562, read-out: Antiproliferative effect (inhibition ratio) K562
# From the text: as §1
Compound,inhibition at 10 µM [1],inhibition at 100 µM [1],inhibition at 10 µM [2],inhibition at 100 µM [2],inhibition at 10 µM [3],inhibition at 100 µM [3],The inhibition ratio of the compound on EGFR(%) (EGFR tyrosine kinase; 40 μM),The inhibition ratio of the compound on EGFR(%) (EGFR tyrosine kinase; 200 μM),inhibition at 10 µM [4],inhibition at 100 µM [4],inhibition at 10 µM [5],inhibition at 100 µM [5],The inhibition ratio of the compound on Aurora B(%) (aurora kinase B; 40 μM),The inhibition ratio of the compound on Aurora B(%) (aurora kinase B; 200 μM),inhibition at 10 µM [6],inhibition at 100 µM [6],inhibition at 10 µM [7],inhibition at 100 µM [7],inhibition at 10 µM [8],inhibition at 100 µM [8],other results
"C#Cc1cccc2c1CN1C=Nc3cc(OCCOC)c(OCCOC)cc3C1=N2.Cl [Compound V-4, 9-ethynyl-2,3-bis(2-methoxyethoxy)-8H-quinazolino[4,3-b]quinazoline hydrochloride trihydrate]",39.7%,85.9%,44.1%,85%,48.6%,78.7%,48.7%,93.2%,6.85%,19.8%,31.3%,92.6%,38.7%,91.5%,48.9%,83.4%,22.2%,62.7%,33.5%,79%,inhibition at 10 µM [9]: 31.4%; inhibition at 100 µM [9]: 87.6%
"COCCOc1cc2c(cc1OCCOC)C1=Nc3cccc([N+](=O)[O-])c3CN1C=N2 [Compound V-5, 9-nitro-2,3-bis(2-methoxyethoxy)-8H-quinazolino[4,3-b]quinazoline]",17.1%,80.3%,43.8%,63.5%,59.8%,92.5%,25.2%,74.6%,34.8%,78.9%,48.9%,87.2%,35.1%,74.6%,51.7%,84.9%,32.5%,63.6%,22.3%,54.4%,inhibition at 10 µM [9]: 23.6%; inhibition at 100 µM [9]: 78.3%
"COCCOc1cc2c(cc1OCCOC)C1=Nc3cccc(C#N)c3CN1C=N2 [Compound V-7, 9-cyano-2,3-bis(2-methoxyethoxy)-8H-quinazolino[4,3-b]quinazoline]",40.7%,86.6%,32.1%,62.4%,27.7%,83.6%,36.2%,80.5%,34.6%,75.4%,38%,81.4%,23.2%,91.7%,42.1%,81.4%,15.9%,90.3%,40.4%,89.5%,inhibition at 10 µM [9]: 24.3%; inhibition at 100 µM [9]: 61.7%
"COCCOc1cc2c(cc1OCCOC)C1=Nc3cccc(C(F)(F)F)c3CN1C=N2 [Compound V-9, 9-trifluoromethyl-2,3-bis(2-methoxyethoxy)-8H-quinazolino[4,3-b]quinazoline]",11.7%,55.6%,19.2%,70.5%,33.7%,87.5%,13.0%,60.3%,20.4%,65.4%,54.9%,80.7%,17.6%,60.5%,46.3%,73.3%,16.4%,78%,40.1%,82.8%,inhibition at 10 µM [9]: 34.6%; inhibition at 100 µM [9]: 79.9%
"COCCOc1cc2c(cc1OCCOC)C1=Nc3cccc(OC)c3CN1C=N2 [Compound V-10, 9-methoxy-2,3-bis(2-methoxyethoxy)-8H-quinazolino[4,3-b]quinazoline]",36.5%,96.9%,41.1%,72.2%,28.8%,82.8%,30.8%,78.5%,51.8%,84.2%,29.6%,65.1%,20.8%,73.6%,10.8%,72.8%,9.39%,91.7%,31.9%,72.2%,inhibition at 10 µM [9]: 47.5%; inhibition at 100 µM [9]: 85%
"COCCOc1cc2c(cc1OCCOC)C1=Nc3ccc(OCc4cccc(F)c4)c(Cl)c3CN1C=N2 [Compound V-14, 9-chloro-10-(3-fluoro-benzyloxy)-2,3-bis(2-methoxyethoxy)-8H-quinazolino[4,3-b]quinazoline]",38.3%,99.9%,21.3%,98.7%,31.1%,97.8%,45.2%,87.9%,26.9%,97.7%,46.6%,94.8%,23.2%,76.9%,17.6%,88%,38.5%,97.1%,45.1%,100%,inhibition at 10 µM [9]: 36.6%; inhibition at 100 µM [9]: 100%
"COCCOc1cc2c(cc1OCCOC)C1=Nc3cc(F)ccc3CN1C=N2 [Compound V-16, 11-fluoro-2,3-bis(2-methoxyethoxy)-8H-quinazolino[4,3-b]quinazoline]",22.4%,99.9%,44.3%,99.6%,50.7%,70.2%,21.7%,80.1%,56.6%,97.3%,48.9%,66.2%,21.5%,78.1%,52.7%,99.4%,53.5%,98.9%,30.3%,74.6%,inhibition at 10 µM [9]: 53.6%; inhibition at 100 µM [9]: 93.8%
"COCCOc1cc2c(cc1OCCOC)C1=Nc3cc(C#N)ccc3CN1C=N2 [Compound V-17, 11-cyano-2,3-bis(2-methoxyethoxy)-8H-quinazolino[4,3-b]quinazoline]",19.6%,56.8%,35.9%,45.3%,49.9%,87.1%,25.4%,70.6%,33.7%,79.6%,37.5%,95.5%,26.4%,84.3%,9.66%,26.1%,28.1%,91.7%,58.4%,85.2%,inhibition at 10 µM [9]: 19.1%; inhibition at 100 µM [9]: 25.2%
"COCCOc1cc2c(cc1OCCOC)C1=Nc3cc(O)ccc3CN1C=N2 [Compound V-18, 11-hydroxy-2,3-bis(2-methoxyethoxy)-8H-quinazolino[4,3-b]quinazoline]",30%,84.4%,19.7%,65.2%,37.8%,78.6%,33.2%,78.8%,44.1%,84%,36.6%,72.3%,23.2%,76.9%,38.1%,75.1%,37%,76.2%,40.1%,77.5%,inhibition at 10 µM [9]: 10.4%; inhibition at 100 µM [9]: 59%
